# Test results from PMC5618561 (International Journal of Molecular Sciences, 2017).
# Where two headings read alike, the source gives them in different places.
# Legend:
# [1] = target: T1, α-lipoamide dehydrogenase (Rattus norvegicus, UniProt Q6P6R2); experiment: α-lipoamide dehydrogenase activity in intact mitochondria (re-reduction of NAD(P)+ after α-lipoamide, NAD(P)H fluorescence); assay type: biochemical; details: for IC50: read-out: Apparent IC50 of inhibition of α-lipoamide dehydrogenase; for inhibition of α-lipoamide dehydrogenase (in words): rat liver mitochondria, abstract summary
# T1 construct: After 3 min incubation of rat liver mitochondria (0.3 mg protein/mL) in MTP medium; from tissue; host or cells: liver mitochondria of Wistar rat
# T1 sequence (Q6P6R2 36-509): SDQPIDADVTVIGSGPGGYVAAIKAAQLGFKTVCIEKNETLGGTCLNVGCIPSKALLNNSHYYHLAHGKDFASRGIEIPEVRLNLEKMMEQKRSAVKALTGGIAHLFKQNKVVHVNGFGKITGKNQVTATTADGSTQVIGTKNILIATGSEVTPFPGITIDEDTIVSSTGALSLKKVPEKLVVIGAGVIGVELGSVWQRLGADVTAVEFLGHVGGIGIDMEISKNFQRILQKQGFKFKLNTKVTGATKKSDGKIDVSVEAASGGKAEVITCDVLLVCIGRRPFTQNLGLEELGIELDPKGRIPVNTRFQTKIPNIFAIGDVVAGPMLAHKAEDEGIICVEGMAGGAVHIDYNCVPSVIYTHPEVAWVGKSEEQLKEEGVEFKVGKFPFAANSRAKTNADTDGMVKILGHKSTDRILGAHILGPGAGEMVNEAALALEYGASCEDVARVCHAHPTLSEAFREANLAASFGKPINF
# [2] = system: 2-oxoglutarate oxidation of isolated rat liver mitochondria; experiment: ADP-stimulated 2-oxoglutarate oxidation of rat liver mitochondria; assay type: biochemical; details: 3 min preincubation with 1 mM ATP, 5 mM MgCl2, 10 mM 2-oxoglutarate, 1 mM ADP, read-out: Apparent IC50 of inhibition of 2-oxoglutarate oxidation
# [3] = cited from earlier work
# [4] = system: glutamate oxidation of isolated rat liver mitochondria; experiment: ADP-stimulated glutamate (+ malate) oxidation of rat liver mitochondria; assay type: biochemical; details: 3 min preincubation with 1 mM ATP, 5 mM MgCl2, 10 mM glutamate, 5 mM malate, 1 mM ADP, read-out: Apparent IC50 of inhibition of glutamate oxidation
# [5] = system: pyruvate oxidation of isolated rat liver mitochondria; experiment: ADP-stimulated pyruvate oxidation of isolated rat liver mitochondria (high-resolution respirometry); assay type: biochemical
# epilepsy model = details: racemate; dependent on the epilepsy model; cited from earlier work
# [6] = system: pilocarpine-induced status epilepticus (SE); details: cited from earlier work; for protection against pilocarpine-induced status epilepticus: rat
# SWV/Finn mice = details: cited from earlier work
# [7] = system: pyruvate transport of rat liver mitochondria; experiment: pyruvate transport: pyruvate-dependent swelling of mitochondria in ammonium pyruvate; assay type: biochemical; details: 1 mM compound; rat liver mitochondria in 0.1 M ammonium pyruvate
# Procedure: (§1) (A) The plotted pyruvate dehydrogenase (PDH) activities are averages of three independent experiments; (B) Swelling of mitochondria in 0.1 M ammonium pyruvate buffer. One representative experiment (out of 3) is shown. […] Experimental conditions as described in Materials and Methods.
# For pyruvate transport determinations, the mitochondrial suspension (0.6–0.7 mg protein) was placed into a 3 mL spectrophotometric cuvette, containing 5 mM MgCl2, 2 µM rotenone, 1.5 µg/mL antimycin, and 0.1 M ammonium pyruvate (obtained from ammonium hydroxide and pyruvic acid). When indicated, 1 mM cinnamate was added. Mitochondrial swelling was estimated at 30 °C using a spectrophotometer (Aminco DW 2000, SLM Instruments) at 546 nm.
# [8] = patients with epilepsy; cited from earlier work
# pyruvate dehydrogenase = target: T2, pyruvate dehydrogenase (Rattus norvegicus, UniProt P26284+P49432); experiment: pyruvate dehydrogenase (PDH) activity of isolated rat liver mitochondria; assay type: biochemical; details: preincubation with 10 mM VPA and 1 mM ATP; excess α-lipoamide dehydrogenase
# T2 construct: the mitochondrial suspension (0.3 mg protein) was placed into a 0.5 mL spectrophotometric cuvette; from tissue; host or cells: liver mitochondria of Wistar rat, solubilised with 0.1% N-dodecyl-β-D-maltoside
# T2 sequence (P26284 30-390): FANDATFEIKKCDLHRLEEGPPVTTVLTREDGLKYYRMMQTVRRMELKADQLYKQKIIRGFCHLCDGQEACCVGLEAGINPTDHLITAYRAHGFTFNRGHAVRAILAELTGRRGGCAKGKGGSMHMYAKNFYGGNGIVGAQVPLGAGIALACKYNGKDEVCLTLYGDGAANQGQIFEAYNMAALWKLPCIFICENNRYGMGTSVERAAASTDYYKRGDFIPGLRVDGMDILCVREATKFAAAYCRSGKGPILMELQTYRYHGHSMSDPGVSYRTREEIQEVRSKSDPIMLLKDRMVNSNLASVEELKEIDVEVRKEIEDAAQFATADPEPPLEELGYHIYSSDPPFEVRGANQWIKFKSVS
# T2 sequence (P49432 31-359): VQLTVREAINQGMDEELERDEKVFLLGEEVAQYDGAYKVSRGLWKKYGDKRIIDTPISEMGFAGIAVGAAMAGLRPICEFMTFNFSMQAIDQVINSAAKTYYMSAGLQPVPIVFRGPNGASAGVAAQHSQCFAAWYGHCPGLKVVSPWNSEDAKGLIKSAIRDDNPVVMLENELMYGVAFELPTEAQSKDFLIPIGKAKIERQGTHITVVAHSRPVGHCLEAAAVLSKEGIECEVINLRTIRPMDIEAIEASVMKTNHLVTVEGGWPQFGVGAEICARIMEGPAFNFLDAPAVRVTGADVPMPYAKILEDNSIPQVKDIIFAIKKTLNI
# Procedure: as §1
# PDH activity in this suspension was determined according to Scislowski and Davis with the following modifications: the mitochondrial suspension (0.3 mg protein) was placed into a 0.5 mL spectrophotometric cuvette, containing 0.1 M potassium phosphate buffer (pH 7.4), 5 mM MgCl2, 3 mM NAD^+, 0.1 mM CoASH, 2 mM dithiothreitol, 0.1% N-dodecyl-β-D-maltoside, 0.4 mM thiamine pyrophosphate, 20 µg/mL diaphorase (Boehringer Mannheim, Mannheim, Germany), and 10 mM pyruvate. PDH activity was measured at 30 °C using a spectrophotometer (Aminco DW 2000, SLM Instruments, Urbana, IL, USA) with 340–380 nm dual wavelength photometry.
# [9] = isolated rat liver mitochondria, 3 min preincubation with drug, 1 mM ATP, 5 mM MgCl2, 10 mM pyruvate, 5 mM malate, ADP, read-out: Apparent IC50 of inhibition of pyruvate oxidation
# [10] = isolated rat liver mitochondria, pyruvate-dependent reduction of NAD(P)+, estimated value
# [11] = SWV/Finn mice, strain highly susceptible to VPA-induced teratogenicity
Compound,IC50 [2],IC50 [4],"IC50 [5, 9]",inhibition of α-lipoamide dehydrogenase (in words) [1],teratogenic effects (SWV/Finn mice; [11]),other results
O=[As][O-].[Na+] [arsenite],–,–,–,–,–,inhibition of DLDH activity [1]: complete inhibition
"CCCC(CCC)C(N)=O [VPD, Valpromide]",8000 µM,3000 µM,5000 µM,only small effects,–,"biotransformation to the corresponding acid ([3]; humans): rapid transformation to VPA; IC50 [1, 10]: > 1000 µM"
"CCC(C)C(CC)C(N)=O (stereo not drawn) [VCD, Valnoctamide]",–,–,–,only small effects,did not show any significant teratogenic effects,"anticonvulsant activity: concentrations lower than VPA (epilepsy model): 2–16 times; block of pilocarpine-induced electrographic SE ([6]; 180 mg/kg): did block; protection against pilocarpine-induced status epilepticus ([6]; 65 mg/kg intraperitoneally at seizure onset): protected; protection against pilocarpine-induced status epilepticus ([6]; 80 mg/kg 30 min after seizure onset): protection was lost; biotransformation to the corresponding acid ([3]; in vivo): low biotransformation; IC50 [1, 10]: > 1000 µM"
"CC[C@H](C)[C@@H](CC)C(N)=O [(2R,3S)-VCD]",–,–,–,–,did not show any significant teratogenic effects,–
O=C(O)/C=C/c1ccccc1 [cinnamate],–,–,–,–,–,effect on pyruvate-dependent swelling velocity (pyruvate transport) [7]: clearly inhibited
Valnoctic acid [VCA],200 µM,2000 µM,900 µM,–,–,"teratogenic effects (SWV/Finn mice; mouse, in vivo): did not show any significant teratogenic effects; IC50 ([5]; both substrates summarised together, preincubated in the presence of ATP, read-out: IC50 of inhibition of pyruvate and 2-oxoglutarate oxidation rates of liver mitochondria): 200 to 900 µM; IC50 [1]: 300 µM"
"CCCC(C(N)=O)C(C)CC (stereo not drawn) [SPD, sec-Butylpropylacetamide]",1000 µM,2000 µM,3000 µM,only small effects,–,"IC50 ([1]; […], pyruvate-dependent reduction of NAD(P)+, estimated value): > 1000 µM"
"CCCC(C(=O)O)C(C)CC (stereo not drawn) [SPA, sec-Butylpropylacetic acid]",50 µM,2000 µM,50 µM,Strong inhibition,–,"IC50 ([1]; […], pyruvate-dependent reduction of NAD(P)+ after 75 µM α-lipoamide, preincubation with 1 mM ATP): 100 µM"
"CCCC(CCC)C(=O)O [VPA, Valproic acid]",50 µM,10000 µM,50 µM,strongly inhibited,–,"therapeutic blood levels [8]: 40 to 100 mg/L; effect on pyruvate dehydrogenation velocity (PDH activity) (pyruvate dehydrogenase): slight increase; effect on pyruvate-dependent swelling velocity (pyruvate transport) [7]: no effect; IC50 ([5]; isolated rat liver mitochondria, 3 min preincubation with drug, 1 mM ATP, 5 mM MgCl2, 10 mM pyruvate, 5 mM malate, ADP, listed as valproic acid, read-out: Apparent IC50 of inhibition of pyruvate oxidation): ~50 µM; pyruvate-dependent re-reduction of NAD(P)+ after α-lipoamide ([1]; 0.5 and 1 mM VPA): strongly inhibited; glutamate-dependent re-reduction of NAD(P)+ after α-lipoamide ([1]; glutamate as substrate): no effects; IC50 ([1]; isolated rat liver mitochondria, pyruvate-dependent reduction of NAD(P)+ after 75 µM α-lipoamide, preincubation with 1 mM ATP): 80 µM"
"CC[C@H](C(N)=O)[C@@H](C)CC [(2S,3S)-VCD]",–,–,–,–,did not show any significant teratogenic effects,–
